≈ marks a conversion by molar mass, not a printed value. Read-outs that look alike come from different tables or passages of the source. Marks after values point to notes of the source that are not given here.
Experiments:
S. aureus ATCC 29213 = assay: MIC determination; type: cell-based, Staphylococcus aureus
S. aureus VRS2 = assay: MIC determination; type: cell-based; details: Staphylococcus aureus; vancomycin-resistant MRSA (vanA) isolate from Pennsylvania; Tables 1 and 5; read-out: MIC
From the text: (§1) The ESKAPE organisms (E. faecium NCTC (ATCC 19734), S. aureus ATCC 29213, K. pneumonia ATCC 700603, A. baumannii ATCC 17961, P. aeruginosa ATCC 17853, E. aerogenes ATCC 35029) and E. coli ATCC 25922) in the initial screen, S. aureus ATCC 27660, S. epidermis ATCC 35547, S. haemolyticus ATCC 29970, S. oralis ATCC 9811, S. pyogenes ATCC 49399, B. cereus ATCC 13061, B. licheniformis ATCC 12759, and E. faecalis ATCC 29212 were purchased from the American Type Culture Collection (Manassas, Va., USA). S. aureus strains NRS100, NRS119, NRS120, VRS1, and VRS2 were obtained from the Network on Antimicrobial Resistance in Staphylococcus aureus (Chantilly, Va., USA). E. faecalis strains 201 and 99, and E. faecium strains 119-39A and 106 were collected from Wayne State University School of Medicine.
(§2) The procedure for MIC determination was the same as previously reported (Tran et al., Am. J. Clin. Dermatol. 2015; doi 10.1007/S40257-015-0125-9).

S. aureus NRS100 (COL) = assay: MIC determination; type: cell-based; details: Staphylococcus aureus, mecA positive, resistant to methicillin, oxacillin, tetracycline, Tables 1 and 5, read-out: MIC
From the text: as §1, §2

E. faecium 106 (Van R) [1] = assay: MIC determination; type: cell-based; details: Enterococcus faecium
From the text: as §1, §2

B. cereus ATCC 13061 = assay: MIC determination; type: cell-based; details: Bacillus cereus, ATCC13061; Tables 1 and 5; read-out: MIC
From the text: as §1, §2

S. aureus ATCC 27660 = assay: MIC determination; type: cell-based; details: Staphylococcus aureus, ATCC27660; mecA positive, resistant to methicillin, oxacillin, tetracycline; Tables 1 and 5; read-out: MIC
From the text: as §1, §2

S. aureus VRS1 [2] = assay: MIC determination; type: cell-based; details: Staphylococcus aureus; vancomycin-resistant MRSA (vanA) isolate from Michigan; Tables 1 and 5; read-out: MIC
From the text: as §1, §2

E. faecalis 201 (Van S) = assay: MIC determination; type: cell-based; details: Enterococcus faecalis; vancomycin-susceptible clinical isolate; Tables 1 and 5; read-out: MIC
From the text: as §1, §2

S. epidermis ATCC 35547 [3] = assay: MIC determination; type: cell-based
From the text: as §1, §2

E. faecalis ATCC 29212 = assay: MIC determination; type: cell-based; details: Enterococcus faecalis, ATCC29212; quality-control strain; Tables 1 and 5; read-out: MIC
From the text: as §1, §2

E. faecalis 99 (Van R) = assay: MIC determination; type: cell-based; details: Enterococcus faecalis; vancomycin-resistant clinical isolate; Tables 1 and 5
From the text: as §1, §2

S. aureus NRS120 = assay: MIC determination; type: cell-based; details: Staphylococcus aureus, mecA positive, linezolid-resistant, Tables 1 and 5, read-out: MIC
From the text: as §1, §2

[4] = tested on: B. licheniformis ATCC 12759; assay: MIC determination; type: cell-based; details: Bacillus licheniformis, ATCC12759; Tables 1 and 5; read-out: MIC
From the text: as §1, §2

S. aureus NRS119 = assay: MIC determination; type: cell-based; details: Staphylococcus aureus, mecA positive, linezolid-resistant, Tables 1 and 5, read-out: MIC
From the text: as §1, §2

[5] = tested on: S. haemolyticus ATCC 29970; assay: MIC determination; type: cell-based; details: Staphylococcus haemolyticus, ATCC29970; Tables 1 and 5; read-out: MIC
From the text: as §1, §2

[6] = tested on: E. faecium 119-39A (Van S); assay: MIC determination; type: cell-based; details: Enterococcus faecium
From the text: as §1, §2

E. faecium C68 [7] = assay: MIC determination; type: cell-based; details: Enterococcus faecium, vancomycin-resistant clinical strain from Cleveland hospitals, Table 5
From the text: as §2

[8] = cited from earlier work
E. faecium 106 (Van R) [9] = details: vancomycin, data from reference 10; Table 5; cited from earlier work
E. faecium NCTC 7171 = assay: MIC determination; type: cell-based, Enterococcus faecium; details: Enterococcus faecium, NCTC7171
S. epidermis ATCC 35547 [10] = details: vancomycin, data from reference 10; Table 5; cited from earlier work
S. oralis ATCC 9811 = assay: MIC determination; type: cell-based; details: Streptococcus oralis, ATCC9811
From the text: as §1, §2

S. pyogenes ATCC 49399 = assay: MIC determination; type: cell-based; details: Streptococcus pyogenes, ATCC49399
From the text: as §1, §2

E. faecium C68 [11] = details: vancomycin, data from reference 12; Table 5; cited from earlier work
S. aureus VRS1 [12] = details: vancomycin, data from reference 10; Table 5; cited from earlier work
[13] = tested on: E. faecium 119-39A (Van S); details: vancomycin, data from reference 10; Table 5; cited from earlier work

## [N-]=[N+]=Nc1cc(-c2noc(-c3ccc(O)cc3)n2)ccc1Oc1ccccc1 [Compound 53a, 4-(3-(3-azido-4-phenoxyphenyl)-1,2,4-oxadiazol-5-yl)phenol]
S. aureus ATCC 29213; S. aureus ATCC29213, second numbering, compounds of Scheme 6
  antibacterial activity in words (SAR, C/D ring derivatives): demonstrated activity
S. aureus ATCC 29213; Staphylococcus aureus, ATCC29213, quality-control, methicillin-susceptible strain, Tables 1 and 5, read-out: MIC
  MIC: 2 µg/mL (≈ 5.39 µM)
S. aureus VRS2
  MIC: 2 µg/mL (≈ 5.39 µM)
S. aureus NRS100 (COL)
  MIC: 4 µg/mL (≈ 10.8 µM)
E. faecium 106 (Van R) [1]; vancomycin-resistant clinical isolate, Tables 1 and 5, read-out: MIC
  MIC: 4 µg/mL (≈ 10.8 µM)
B. cereus ATCC 13061
  MIC: 4 µg/mL (≈ 10.8 µM)
S. aureus ATCC 27660
  MIC: 4 µg/mL (≈ 10.8 µM)
S. aureus VRS1 [2]
  MIC: 2 µg/mL (≈ 5.39 µM)
E. faecalis 201 (Van S)
  MIC: 4 µg/mL (≈ 10.8 µM)
S. epidermis ATCC 35547 [3]; Tables 1 and 5, read-out: MIC
  MIC: 2 µg/mL (≈ 5.39 µM)
E. faecalis ATCC 29212
  MIC: 2 µg/mL (≈ 5.39 µM)
E. faecalis 99 (Van R)
  MIC: 4 µg/mL (≈ 10.8 µM)
S. aureus NRS120
  MIC: 4 µg/mL (≈ 10.8 µM)
[4]
  MIC: 4 µg/mL (≈ 10.8 µM)
S. aureus NRS119
  MIC: 4 µg/mL (≈ 10.8 µM)
[5]
  MIC: 2 µg/mL (≈ 5.39 µM)
[6]; vancomycin-susceptible clinical isolate, Tables 1 and 5, read-out: MIC
  MIC: 4 µg/mL (≈ 10.8 µM)
E. faecium C68 [7]
  MIC: 4 µg/mL (≈ 10.8 µM)

## teicoplanin
[8]
  Plasma protein binding: > 91%

## CN[C@H](CC(C)C)C(=O)N[C@H]1C(=O)N[C@@H](CC(N)=O)C(=O)N[C@H]2C(=O)N[C@H]3C(=O)N[C@H](C(=O)N[C@H](C(=O)O)c4cc(O)cc(O)c4-c4cc3ccc4O)[C@H](O)c3ccc(c(Cl)c3)Oc3cc2cc(c3O[C@@H]2O[C@H](CO)[C@@H](O)[C@H](O)[C@H]2O[C@H]2C[C@](C)(N)[C@H](O)[C@H](C)O2)Oc2ccc(cc2Cl)[C@H]1O [vancomycin, reference compound]
E. faecium 106 (Van R) [9]
  MIC: 256 µg/mL (≈ 177 µM)
E. faecium NCTC 7171
  MIC: 0.5 µg/mL (≈ 0.345 µM)
S. epidermis ATCC 35547 [10]
  MIC: 16 µg/mL (≈ 11 µM)
E. faecium 106 (Van R) [1]
  MIC: 256 µg/mL (≈ 177 µM)
S. oralis ATCC 9811
  MIC: 0.5 µg/mL (≈ 0.345 µM)
S. pyogenes ATCC 49399
  MIC: 0.6 µg/mL (≈ 0.414 µM)
S. epidermis ATCC 35547 [3]
  MIC: 16 µg/mL (≈ 11 µM)
[6]
  MIC: 0.5 µg/mL (≈ 0.345 µM)
E. faecium C68 [11]
  MIC: 64^k μg/mL
S. aureus VRS1 [12]
  MIC: 512 µg/mL (≈ 353 µM)
[13]
  MIC: 0.5 µg/mL (≈ 0.345 µM)
